Assay results taken from paper PMC6656724 (Communications Biology, 2019).
Where two headings read alike, the source gives them in different places.

Assays:
[1] = Mouse brain penetration study; assay type: in vivo, female C57BL6 mice; conditions: mouse, 1 mg/kg i.v.; for In blood / In brain: single mice, analyte inhibitor 1 (also after prodrugs) or 1h
Experimental: Inhibitor 1 (and prodrugs 1a, 1b, 1c and 1d) was dosed as a bolus solution intravenously at 1 mg free base/kg (dose volume: 5 mL/kg; dose vehicle: 5% DMSO; 95% saline (inhibitor 1) or 5% DMSO; 40% PEG400; 55% MilliQ H2O (prodrugs 1a, 1b, 1c and 1d)) to female C57BL6 mice (n = 6). At 5 min and 60 min following intravenous bolus injection of test compound, mice (n = 3/timepoint) were placed under terminal anaesthesia with isofluorane. A blood sample was taken by cardiac puncture, the […] decapitated and the brain removed. Brain weight was noted and each brain homogenised with two volumes of methanol (2 mL/g brain). Each blood sample was diluted with distilled water (1:10). Diluted blood and the brain homogenates were then stored frozen until preparation and analysis by UPLC-MS/MS. For each mouse at each timepoint for 1, the concentration in brain (ng/g) was divided by the concentration in blood (ng/mL) to give a brain:blood ratio. The mean value obtained was quoted. For prodrugs 1a to 1d, only the concentration of 1 in blood (ng/mL) and brain (ng/g) was reported.
A rapid and sensitive ultra-performance chromatography/tandem mass spectrometry (UPLC-MS/MS) method was developed and validated for the determination of inhibitor 1 and prodrug 1b (rat only). Chromatographic analysis was conducted on a Waters Acquity™ UPLC system. Chromatographic separation was performed with an Acquity™ UPLC BEH C18 column (50 × 2.1 mm, 1.7 µm, 130Å; Waters Corp.) maintained at 40 °C in a column oven. The mobile phase consisted of water with 0.01% formic acid and ACN with 0.01 % formic acid and it was delivered at a flow rate of 0.6 mL/min under gradient eluent conditions within an analysis cycle time of 3 min. The mass detection was conducted on a Waters Xevo™ TQs mass spectrometer equipped with a ScanWave™ technology. Quantitation of the analyte was performed in electrospray positive ionisation mode (ESI^+) using multiple reaction monitoring. The optimised fragmentation transition was m/z = 270.17 → 196.19 (mouse) or m/z = 270.17 → 223.76 (rat) for inhibitor 1 and m/z = 297.83 → 195.74 for prodrug 1b (rat).
Sample extraction for blood and brain homogenate was by protein precipitation (1:3 or 1:6) using ACN containing suitable internal standard. Extracts were vortexed followed by centrifugation (2800 rpm for 10 min). An aliquot of each supernatant was then diluted two-fold in distilled water ready for analysis by UPLC-MS/MS.
The weighted 1/x^2 calibration line was linear in the dynamic range of 1–5000 ng/mL for inhibitor 1 and 1–1000 ng/mL for prodrug 1b with a correlation coefficient (r^2) > 0.99 (inhibitor 1) or 0.98 (prodrug 1b). The quality control samples (QC) were prepared by using the same spiking scheme as the calibration samples and up to four different target concentration brain levels: 2 ng/mL (LQC), 40 ng/mL (MQC), 100 ng/mL (HQC) and 2000 ng/mL. Data collection, peak integration and calculations were performed using MassLynx software, version 2.1.

PfKMO = molecular target: T1, PfKMO (Pseudomonas fluorescens, UniProt Q84HF5, C252S/C461S); test: Stopped-flow reduction of flavin cofactor by NADPH; assay type: biochemical; conditions: PfKMO with saturating ligand, 2 mM NADPH, 25 °C, anaerobic
T1 construct: made in house; host or cells: E. coli BL21 (DE3)
Experimental: The reduction rate of the flavin cofactor by NADPH was measured using a stopped-flow spectrophotometer (Applied Photophysics Ltd), which was housed in an anaerobic glovebox (Belle Technology). […] The reduction of the flavin was monitored by the decrease in the absorbance of the flavin at 450 nm and transients were fitted to either double or triple exponentials.
Supplementary Figure 13. Reduction of flavin cofactor by NADPH in the presence and absence of ligands. Anaerobic mixtures of 10 µM PfKMO with or without ligand were mixed against anaerobic 2 mM NADPH on a stopped-flow spectrophotometer at 25℃. a, 10 µM PfKMO mixed with 2 mM NADPH; b, 10 µM

MDR1 (P-glycoprotein) = test: in vitro; assay type: in vitro ADME, canine; conditions: dog; for efflux ratio at 1 h, 10 µM: pH 7.4, MDR1 MDCK, Papp B>A / Papp A>B
Experimental: (§1) internal standard at each timepoint. […]
(§2) including an analytical internal standard.
(§3) Apparent permeability (Papp) values were determined from the relationship: […]
(§4) Where V is the volume of each Transwell compartment (apical 125 µL, basolateral 600 µL), and concentrations are the relative MS responses for compound (normalized to internal standard) in the donor chamber before incubation and acceptor chamber at the end of the incubation. Area = area of cells exposed for drug transfer (0.33 cm 2).
(§5) Efflux ratios (Papp B>A / Papp A>B) were calculated for each compound from the […]
(§6) MDR1-MDCK cell line has been engineered to overexpress the efflux transporter, MDR1 (P-glycoprotein), and a finding of good permeability B>A, but poor […]
(§7) order to confirm the involvement of MDR1 in any efflux seen, an “ef fective efflux ratio” (EER) was calculated by comparing compound efflux ratios (ER) in the two cell types, i.e. EER = ER (MDR1-MDCK)/ ER (wild-type MDCK). This ratio illustrates the effect of the over-expressed MDR1 normalised for the background movement of compound through the wild-type cells.
(§8) Lucifer Yellow (LY) was added to the apical buffer in all wells to assess viability of the cell layer. As LY cannot freely permeate lipophilic barriers, a high degree of LY […]
(§9) validity of other wells on the plate.
(§10) Compound recovery from the wells was determined from MS responses (normalized to internal standard) in donor and acceptor chambers at the end of incubation compared to response in the donor chamber pre-incubation.

in vitro = in vitro ADME, canine; conditions: dog; for Papp A→B at 1 h, 10 µM / Papp B→A at 1 h, 10 µM / recovery at 1 h, 10 µM: MDCK; for efflux ratio at 1 h, 10 µM: pH 7.4, wild type MDCK, Papp B>A / Papp A>B
Experimental: as §1, §2, §3, §4, §5, §6, §7, §8, §9, §10

[2] = MDCK-MDR1, pH 7.4, MDR1 MDCK, read-out: Papp A>B Mean
[3] = MDCK-MDR1, pH 7.4, MDR1 MDCK, read-out: Papp B>A Mean
[4] = MDCK-MDR1, pH 7.4, MDR1 MDCK, read-out: Recovery A>B Mean
[5] = MDCK-MDR1, pH 7.4, MDR1 MDCK, read-out: Recovery A>B n=1
[6] = MDCK-MDR1, pH 7.4, MDR1 MDCK, read-out: Recovery A>B n=2
[7] = MDCK-MDR1, pH 7.4, MDR1 MDCK, read-out: Recovery B>A Mean
[8] = MDCK-MDR1, pH 7.4, MDR1 MDCK, read-out: Recovery B>A n=1
[9] = MDCK-MDR1, pH 7.4, MDR1 MDCK, read-out: Recovery B>A n=2
[10] = MDCK-MDR1, pH 7.4, Papp A>B n=1, MDR1 MDCK
[11] = MDCK-MDR1, pH 7.4, Papp A>B n=2, MDR1 MDCK
[12] = MDCK-MDR1, pH 7.4, Papp B>A n=1, MDR1 MDCK
[13] = MDCK-MDR1, pH 7.4, Papp B>A n=2, MDR1 MDCK
[14] = pH 7.4, Papp A>B n=1, wild type MDCK
[15] = pH 7.4, Papp A>B n=2, wild type MDCK
[16] = pH 7.4, Papp B>A n=1, wild type MDCK
[17] = pH 7.4, Papp B>A n=2, wild type MDCK
[18] = pH 7.4, wild type MDCK, read-out: Papp A>B Mean
[19] = pH 7.4, wild type MDCK, read-out: Papp B>A Mean
[20] = pH 7.4, wild type MDCK, read-out: Recovery A>B Mean
[21] = pH 7.4, wild type MDCK, read-out: Recovery A>B n=1
[22] = pH 7.4, wild type MDCK, read-out: Recovery A>B n=2
[23] = pH 7.4, wild type MDCK, read-out: Recovery B>A Mean
[24] = pH 7.4, wild type MDCK, read-out: Recovery B>A n=1
[25] = pH 7.4, wild type MDCK, read-out: Recovery B>A n=2

T1 sequence (Q84HF5 whole entry C252S/C461S): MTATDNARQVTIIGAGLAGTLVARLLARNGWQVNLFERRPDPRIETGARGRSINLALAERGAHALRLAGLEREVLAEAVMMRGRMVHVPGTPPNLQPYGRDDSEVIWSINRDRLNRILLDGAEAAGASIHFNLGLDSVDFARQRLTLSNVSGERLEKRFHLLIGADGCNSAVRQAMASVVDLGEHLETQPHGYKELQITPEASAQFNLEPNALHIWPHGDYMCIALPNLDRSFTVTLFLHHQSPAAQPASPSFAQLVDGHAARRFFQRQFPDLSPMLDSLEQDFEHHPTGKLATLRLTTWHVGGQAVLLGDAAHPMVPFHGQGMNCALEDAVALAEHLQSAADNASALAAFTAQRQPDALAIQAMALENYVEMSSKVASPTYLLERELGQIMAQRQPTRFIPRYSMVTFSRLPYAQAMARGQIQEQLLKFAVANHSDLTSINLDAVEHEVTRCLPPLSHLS

Row | SMILES | Papp A→B at 1 h, 10 µM (MDR1 (P-glycoprotein); [2]) [×10⁻⁶ cm/s] | Papp B→A at 1 h, 10 µM (MDR1 (P-glycoprotein); [3]) [×10⁻⁶ cm/s] | recovery at 1 h, 10 µM (MDR1 (P-glycoprotein); [4]) [%] | recovery at 1 h, 10 µM (MDR1 (P-glycoprotein); [5]) [%] | recovery at 1 h, 10 µM (MDR1 (P-glycoprotein); [6]) [%] | recovery at 1 h, 10 µM (MDR1 (P-glycoprotein); [7]) [%] | recovery at 1 h, 10 µM (MDR1 (P-glycoprotein); [8]) [%] | recovery at 1 h, 10 µM (MDR1 (P-glycoprotein); [9]) [%] | Papp A→B at 1 h, 10 µM (MDR1 (P-glycoprotein); [10]) [×10⁻⁶ cm/s] | Papp A→B at 1 h, 10 µM (MDR1 (P-glycoprotein); [11]) [×10⁻⁶ cm/s] | Papp B→A at 1 h, 10 µM (MDR1 (P-glycoprotein); [12]) [×10⁻⁶ cm/s] | Papp B→A at 1 h, 10 µM (MDR1 (P-glycoprotein); [13]) [×10⁻⁶ cm/s] | efflux ratio at 1 h, 10 µM (MDR1 (P-glycoprotein)) | Papp A→B at 1 h, 10 µM (in vitro; [14]) [×10⁻⁶ cm/s] | Papp A→B at 1 h, 10 µM (in vitro; [15]) [×10⁻⁶ cm/s] | Papp B→A at 1 h, 10 µM (in vitro; [16]) [×10⁻⁶ cm/s] | Papp B→A at 1 h, 10 µM (in vitro; [17]) [×10⁻⁶ cm/s] | Papp A→B at 1 h, 10 µM (in vitro; [18]) [×10⁻⁶ cm/s] | Papp B→A at 1 h, 10 µM (in vitro; [19]) [×10⁻⁶ cm/s] | recovery at 1 h, 10 µM (in vitro; [20]) [%] | other results
1 | COC(=O)CN1C(=O)COc2cc(C)c(Cl)c(C)c21 [1a] | – | – | – | – | – | – | – | – | – | – | – | – | – | – | – | – | – | – | – | – | In blood ([1]; 5 min, listed as prodrug 1a, 1 mg/kg): ≤ LLoQ
2 | Cc1cc2c(c(C)c1Cl)N(CC(=O)OC(C)C)C(=O)CO2 [1c] | – | – | – | – | – | – | – | – | – | – | – | – | – | – | – | – | – | – | – | – | In brain ([1]; 60 min): ≤ LLoQ
3 | Cc1cc2c(c(C)c1Cl)N(Cc1nn[nH]n1)C(=O)CO2 [1h, 6-chloro-5,7-dimethyl-4-(2H-tetrazol-5-ylmethyl)-1,4-benzoxazin-3-one] | – | – | – | – | – | – | – | – | – | – | – | – | – | – | – | – | – | – | – | – | Blood levels lower than those observed for 1 [1]: ~ 50%; Brain penetrance (in words) [1]: very limited brain penetrance; In blood ([1]; 60 min): ≤ LLoQ; In brain ([1]; 60 min): ≤ LLoQ; Reduction rate of flavin cofactor (PfKMO): 0.09 ± 0.001 s⁻¹
4 | Oc1ccc(-c2csc3nc(-c4ccccc4)nn23)c(O)c1 [compound 3, 4-(2-phenyl[1,2,4]triazolo[5,1-b][1,3]thiazol-6-yl)benzene-1,3-diol] | 3.25 | 4.95 | 18 | 15 | 21 | 49.5 | 51 | 48 | 2.9 | 3.6 | 4.9 | 5 | 1.5 | 2.7 | 3.9 | 2.7 | 3.2 | 3.3 | 2.95 | 15 | recovery at 1 h, 10 µM (in vitro; [21]): 15%; recovery at 1 h, 10 µM (in vitro; [22]): 15%; recovery at 1 h, 10 µM (in vitro; [23]): 49%; recovery at 1 h, 10 µM (in vitro; [24]): 50%; recovery at 1 h, 10 µM (in vitro; [25]): 48%; efflux ratio at 1 h, 10 µM (in vitro): 0.89
5 | Cn1c(C(=O)N[C@@H](C(=O)O)c2ccccc2)cc2cc(F)ccc21 [compound 5, (R)-2-(5-fluoro-1-methyl-1H-indole-2-carboxamido)-2-phenylacetic acid] | 2.6 | 2.25 | 83 | 87 | 79 | 81.5 | 80 | 83 | 2.8 | 2.4 | 2.4 | 2.1 | 0.88 | 2.6 | 2.1 | 1.6 | 1.4 | 2.35 | 1.5 | 81 | recovery at 1 h, 10 µM (in vitro; [21]): 81%; recovery at 1 h, 10 µM (in vitro; [22]): 81%; recovery at 1 h, 10 µM (in vitro; [23]): 83.5%; recovery at 1 h, 10 µM (in vitro; [24]): 86%; recovery at 1 h, 10 µM (in vitro; [25]): 81%; efflux ratio at 1 h, 10 µM (in vitro): 0.62
6 | CC(CSc1ccc(Cl)cc1)C(=O)O (stereo not shown) [compound 6, 3-[(4-chlorophenyl)thio]-2-methylpropanoic acid] | 50.5 | 41.5 | 82 | 68 | 96 | 80 | 93 | 67 | 40 | 61 | 51 | 32 | 0.81 | 33 | 41 | 51 | 50 | 37 | 50.5 | 66 | recovery at 1 h, 10 µM (in vitro; [21]): 57%; recovery at 1 h, 10 µM (in vitro; [22]): 75%; recovery at 1 h, 10 µM (in vitro; [23]): 93.5%; recovery at 1 h, 10 µM (in vitro; [24]): 98%; recovery at 1 h, 10 µM (in vitro; [25]): 89%; efflux ratio at 1 h, 10 µM (in vitro): 1.36
